Legend:
[1] = system: PAK1/2/3; assay: Western blot of PAK phosphorylation in MDA-MB-231 cells; assay type: cell-based, human; conditions: MDA-MB-231, 250 nmol/L
From the text: Total cell lysates or pulldowns were Western blotted using routine procedures. The primary antibodies used were anti-Rac (Cell Signaling Technology), anti-Cdc42 (Abcam), anti-PAK1+PAK2+PAK3 (Cell Signaling Technology), anti-pPAK1 (T423)/PAK2 (T402; Abcam), anti-PAK1 + PAK2 + PAK3 (phospho T423; Abcam), Rac1B, and β-actin (Millipore-Sigma).

[2] = system: MDA-MB-231 cells; assay: Wound healing assay; assay type: cell-based, human; conditions: 250 nmol/L; 12 and 24 hours
Experimental: MDA-MB-231 cells were plated on 12-well plates at equal cell density until confluent. Then the media was changed to 1% FBS, and a single scratch was made in the center of the monolayer culture with a pipet tip. Compounds were added immediately at 250 or 500 nmol/L and images were digitally acquired from a Keyence microscope (10×) at 0, 12, and 24 hours. The scratch area was quantified in ImageJ using the Macro Wound Healing Tool (http://dev.mri.cnrs.fr/projects/imagej-macros/wiki/Wound_Healing_Tool; n = 3 biologic replicates: with three technical replicates each).

[3] = biological target: T1, CYP2C19 (Homo sapiens, UniProt P33261); assay: CyP450 enzyme assay (P450-Glo); assay type: in vitro ADME
T1 construct: purchased Promega
Experimental: (§1) The assay was carried out using P450-Glo Screening System (Promega). The system contained recombinant human CYP enzyme and P450 reductase (and cytochrome b5 for CYP2C9, 2C19, and 3A4), luminogenic substrates appropriate for each CYP enzyme, a NADPH regeneration system (containing NADP+), and luciferin detection reagent. […] These compounds and organic solvents acetonitrile, and DMSO were purchased from Sigma-Aldrich.
(§2) First, 12.5 μL of the 4X stock solution of test compounds or positive controls (appropriate for each enzyme) were added to the “treated” wells. For the “untreated” (the values from these wells represent total CYP activity) and “minus-P450 control” wells (the values from these wells represent the CYP-independent background luminescence of the assay), 12.5 μL of vehicle was added. Then, 12.5 μL of the 4X control reaction mixture (containing membrane preparations devoid of CYP enzymes, the appropriate luminogenic substrate, and potassium phosphate buffer) were added to the minus-P450 control wells, and 12.5 μL of the 4X reaction mixture (containing human CYP membrane preparations, the appropriate luminogenic substrate, and potassium phosphate buffer) were added to all other wells. The plates were preincubated at room temperature for 10 minutes with the reaction mixture (membrane with enzyme, substrate, and 1 mol/L potassium phosphate buffer), and then 2X NADPH regeneration system was added to initiate the reaction. After incubation at room temperature for 30 minutes, 50 μL of the Luciferin Detection Reagent was added to stop the reaction and generate the luminescent signal. Before reading, the plate was incubated at room temperature for 20 minutes to stabilize the luminescent signal. The luminescence was measured using an Infinite F200 plate reader (Tecan). […] The percentage of CYP enzyme activity versus log concentration of test compounds were plotted to calculate the IC50 values.

[4] = biological target: T2, CYP3A4 (Homo sapiens, UniProt P08684); assay: CyP450 enzyme assay (P450-Glo); assay type: in vitro ADME; conditions: for IC50: recombinant human CYP enzyme, 0.001–100 μmol/L
T2 construct: purchased Promega
Experimental: as §1, §2

[5] = biological target: T3, CYP2C9 (Homo sapiens, UniProt P11712); assay: CyP450 enzyme assay (P450-Glo); assay type: in vitro ADME; conditions: recombinant human CYP enzyme, 0.001–100 μmol/L
T3 construct: purchased Promega
Experimental: as §1, §2

[6] = biological target: T4, Cdc42 (Homo sapiens, UniProt P60953); assay: Nucleotide association assay, catalyzed by Dbs; assay type: biochemical; parameters: purchased Cytoskeleton, Inc; conditions: 2 or 10 μmol/L, N-MAR-GTP
Experimental: (§3) The nucleotide loading on purified Rho GTPases was monitored using a fluorophore-based Rho GEF Exchange Assay Kit as per manufacturer's instructions (Cytoskeleton, Inc.). Drugs were diluted in exchange buffer and incubated with Rac1, Cdc42, or RhoA. The uptake of fluorescent nucleotide analog N-methylanthraniloyl-GTP (N-MAR-GTP) was measured as an increase in fluorescence due to binding to the nucleotide binding pocket of a GTPase. The fluorimeter was set at 20°C on kinetic mode and N-MAR GTP was detected at […]. After the initial five readings (T0), GEFs (Dbs or Vav2) or Ethylenediaminetetraacetic acid (EDTA) was added to stimulate exchange and readings were obtained every 30 seconds for at least 60 cycles.

[7] = system: Rho; assay: Rho activation assay (Rho.GTP-binding domain of Rhotekin); assay type: cell-based, human; conditions: 250 nmol/L
From the text: Cells were lysed and equal amounts of proteins were subjected to pulldown assays using the p21-binding domain of PAK to isolate the GTP bound Rac1 or Cdc42. […] Top, Pulldown showing GTP bound Rac1; Middle, Total Rac1 in lysates; Bottom, Actin as a loading control. B, Right, Results from positive bands in Western blots quantified using ImageJ. […] Top band, Rac1B.GTP from the pulldown; Middle band, Total Rac1B from cell lysates; Bottom band, Actin (N = 3). […] Top, Pulldown showing GTP bound Cdc42; Middle, Total Cdc42 in lysates; Bottom, Actin as a loading control. E, Right, Results from positive bands in Western blots quantified using ImageJ. […] (n = 3–4; *, P < 0.05; **, P < 0.01; ns, not significant). Error bars represent SEM. […] Rho activation assay was done using the Rho.GTP-binding domain of Rhotekin. […] Cells were lysed and Western blotted for total and active PAK. Left, Top, Cell lysates probed with an anti PAK1/2/3 antibody; second, Western blot analysis with anti phospho (p)-PAK (1/2/3)^Ser141,144,154; third, Western blot analysis with p-PAK (1/2/3)^Thr423; fourth, Anti actin. H, Fold change in p-PAK/PAK for PAK 1/3 (68 kD) for total p-PAK^Ser141,144,154 and p-PAK^Thr423. (n = 3; **, P < 0.01; ***, P < 0.001; ns, not significant). […] Tumor lysates were Western blotted with antibodies specific for Rac1, Cdc42, PAK1/2/3, p-PAK (1/2/3)^Ser141,144,154, or p-PAK^Thr423. […]

[8] = biological target: T4, Cdc42; assay: Nucleotide association assay, induced by EDTA; assay type: biochemical; parameters: purchased Cytoskeleton, Inc; conditions: for EDTA-induced nucleotide loading of N-MAR-GTP on Cdc42: 2 and 10 μmol/L
Experimental: as §3

T1 sequence (P33261 whole entry): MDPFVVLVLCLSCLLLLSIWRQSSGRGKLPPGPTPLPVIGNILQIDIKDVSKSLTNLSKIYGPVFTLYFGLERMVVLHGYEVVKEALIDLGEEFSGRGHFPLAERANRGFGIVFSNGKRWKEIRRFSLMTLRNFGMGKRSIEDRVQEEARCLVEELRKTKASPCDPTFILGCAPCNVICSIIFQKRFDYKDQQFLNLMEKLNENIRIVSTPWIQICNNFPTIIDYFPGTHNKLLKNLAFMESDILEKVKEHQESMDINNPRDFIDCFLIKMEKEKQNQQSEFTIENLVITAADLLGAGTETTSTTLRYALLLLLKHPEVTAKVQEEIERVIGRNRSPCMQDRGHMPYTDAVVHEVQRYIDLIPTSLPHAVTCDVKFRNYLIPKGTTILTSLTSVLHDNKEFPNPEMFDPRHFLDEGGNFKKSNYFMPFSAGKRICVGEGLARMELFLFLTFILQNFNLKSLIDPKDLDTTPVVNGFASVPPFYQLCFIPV
T4 sequence (P60953 whole entry): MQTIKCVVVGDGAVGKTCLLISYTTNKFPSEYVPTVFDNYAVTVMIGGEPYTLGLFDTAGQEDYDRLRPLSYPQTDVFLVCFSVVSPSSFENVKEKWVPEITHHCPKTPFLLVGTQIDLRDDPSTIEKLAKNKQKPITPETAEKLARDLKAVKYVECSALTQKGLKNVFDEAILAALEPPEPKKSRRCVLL
T2 sequence (P08684 whole entry): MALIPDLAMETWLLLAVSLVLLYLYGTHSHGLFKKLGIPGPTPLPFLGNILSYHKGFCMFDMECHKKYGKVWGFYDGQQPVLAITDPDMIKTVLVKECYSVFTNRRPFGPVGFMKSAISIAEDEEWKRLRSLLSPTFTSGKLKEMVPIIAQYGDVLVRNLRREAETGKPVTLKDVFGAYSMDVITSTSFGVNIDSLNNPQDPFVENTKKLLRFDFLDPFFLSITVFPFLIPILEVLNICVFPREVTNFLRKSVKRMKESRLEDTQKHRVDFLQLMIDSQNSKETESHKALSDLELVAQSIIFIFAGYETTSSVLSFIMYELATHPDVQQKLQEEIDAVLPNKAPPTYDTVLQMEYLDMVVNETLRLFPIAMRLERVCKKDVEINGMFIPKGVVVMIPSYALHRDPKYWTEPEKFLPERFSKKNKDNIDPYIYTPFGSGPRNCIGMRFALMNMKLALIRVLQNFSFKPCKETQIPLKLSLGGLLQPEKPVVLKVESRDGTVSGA
T3 sequence (P11712 whole entry): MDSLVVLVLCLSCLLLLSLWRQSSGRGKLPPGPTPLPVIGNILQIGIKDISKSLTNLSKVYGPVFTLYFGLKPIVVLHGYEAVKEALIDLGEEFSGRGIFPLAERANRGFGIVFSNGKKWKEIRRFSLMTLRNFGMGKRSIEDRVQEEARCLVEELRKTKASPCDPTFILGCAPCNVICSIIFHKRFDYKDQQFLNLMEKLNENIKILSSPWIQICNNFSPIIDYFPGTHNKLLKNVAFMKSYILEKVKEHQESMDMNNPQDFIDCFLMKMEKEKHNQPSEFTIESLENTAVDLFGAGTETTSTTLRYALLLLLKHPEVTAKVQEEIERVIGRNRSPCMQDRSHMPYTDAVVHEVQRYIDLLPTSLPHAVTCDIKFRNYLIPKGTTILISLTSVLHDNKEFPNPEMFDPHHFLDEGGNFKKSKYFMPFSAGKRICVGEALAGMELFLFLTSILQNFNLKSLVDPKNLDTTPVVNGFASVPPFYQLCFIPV

Compound | reduction of p-PAK1/3 levels (Thr423) [1] | reduction of p-PAK2 S144 (61 kD band) [1] | reduction of p-PAK2 T423 (61 kD band) [1] | wound closure [2] | IC50 ([3]; recombinant human CYP enzyme, 0.001–100 μmol/L) [nM] | IC50 [4] [nM] | IC50 [5] [nM] | inhibition of GTP loading on Cdc42 catalyzed by Dbs [6] | Rho activation [7] | EDTA-induced nucleotide loading of N-MAR-GTP on Cdc42 [8] | decrease of p-PAK ser 141, 154, PAK1/3 (68 kD band) [1] | CYP2C19 IC50, fold lower than the IC50 for the positive control [3] | IC50 at 30 min ([3]; human, recombinant human CYP enzyme, 0.001–100 μmol/L) [nM] | potency at inhibiting CYP3A4, times less potent than MBQ-167 [4] | inhibition at 10 µM ([8]; 10 μmol/L, N-MAR-GTP, read-out: inhibition of EDTA-induced GTP exchange on Cdc42) [%]
CCn1c2ccccc2c2cc(-n3nncc3-c3ccccc3)ccc21 [MBQ-167] | approximately 75% | approximately 50% | approximately 60% | wound area was maintained at 12 and 24 hours | 455 | 280 | 890 | did not affect | do not affect | inhibited the nucleotide loading of N-MAR-GTP at 10 μmol/L |  |  |  |  | 
CCn1c2ccccc2c2cc(-n3nncc3-c3cccc(OC)c3)ccc21 [MBQ-168] | approximately 100% | approximately 50% | approximately 100% | wound area was maintained at 12 and 24 hours |  | 3180 | 670 | 10%–20% | do not affect | reduced nucleotide loading at both 2 and 10 μmol/L | approximately 95% | approximately 6 fold | 523 | approximately 10 X | 100

— article PMC9970268 (Cancer Research Communications, 2022)
